In US20080206253A1, “Method For Preventing or Treating Pain in a Mammal” (priority 2005, published 2008):
Entries after “also recorded” stand apart in the source; their conditions may differ. Marks after values point to notes of the source that are not given here.

Legend:
p38α = experiment: Western blot of spinal p38α protein expression after IT antisense; format: in vivo, rat; details: for p38α protein expression, % Expression Compared to Missense: spinal cord at day six, MS=100%, mean ±SEM n=6; for spinal p38α protein expression compared to missense (MS)-treated animals (in words): five days of IT bolus injections, p38α AS 10-30 μg (30 μg: P<0.05), p38β AS 10-20 μg
From the text: It has previously been shown that inhibition of spinal p38 MAP kinase prevents both inflammation-evoked hyperalgesia and nerve injury-induced allodynia. Ji et al., Neuron 36: 57-68, 2002; Schafers et al., J Neurosci 23: 2517-2521, 2003; Svensson et al., Neuroreport 14: 1153-1157, 2003a.; Svensson et al., J Neurochem 86: 1534-1544, 2003b. It still remains to be determined whether only one or both of the p38 isoforms, that are present in the spinal cord, are involved in modulation of spinal nociceptive processing. Since there is no specific p38 isoform inhibitors available, rats were treated intrathecally with isoform specific antisense oligonucleotides (AS) in order to knock down p38α and p38β respectively. […] There were no differences between the AS-, MS- or vehicle-treated groups in terms of weight gain or motor function. The specificity of the effects of these two antisense oligonucleotides was also examined. Western blot membranes were stripped and re-incubated the with the other p38 isoform antibody. […] In Table 1, antisense was given IT once daily for 5 days and protein expression assayed in spinal chord at day six compared to protein level detected in missense treated animals (MS=100%). Each group represents mean ±SEM, n=6 per group. (*) represents P<0.05 as compared to the missense group.
Antisense oligonucleotides. Three oligonucleotides (a kind gift from ISIS Pharmaceuticals Inc.) with lengths of 20 nucleotides were employed in the study: ISIS 101757 (p38α AS) […], beginning at position 1081 in the rat p38α mRNA; ISIS 107211 (p38βAS) […], beginning at position 439 in the rat p38β mRNA; and ISIS141923 (an universe MS control) […]. These oligonucleotides were synthesized as 2′-methoxyethyl (MOE) phosphorothioate chimeric oligonucleotides in which the first and last five bases contained MOE modifications with a uniform phosphorothioate backbone. Butler et al., Diabetes 51: 1028-1034, 2002. The oligonucleotides were dissolved in artificial cerebrospinal fluid (ACSF) immediately prior to intrathecal administration. The ACSF contained (mM) 151.1 Na+, 2.6 K+, 0.9 Mg2+, 1.3 Ca 2+, 122.7 Cl−, 21.0 HCO3, 2.5 HPO4 and was bubbled with 95% O2/5% CO2 before use to adjust the final pH to 7.2. AS and MS (10-30 μg) was administrated in 10 μl ACSF followed by 10 μl saline daily for five days and behavioral experiments and spinal tissue collection performed on day six.
Western blot. Prior to sacrifice, rats were deeply anesthetized and after decapitation the spinal cords were ejected from the vertebral column by a saline-filled syringe. The lumbar part of the spinal cord was immediately homogenized in extraction buffer (50 mM Tris buffer, pH 8.0, containing 0.5% Triton X-100, 150 mM NaCl, 1 mM EDTA, phosphatase and protease inhibitors) by sonication. The tissue extracts were subjected to denaturing NuPAGE 4-12% Bis-Tris gel electrophoresis and then transferred to nitrocellulose membranes (Micronic Separation Inc. Westborough, Mass.). After blocking nonspecific binding sites with 5% low-fat milk in PBS containing 0.1% Tween 20 (PBS-T) for 1 hour in room temperature, the membranes were incubated with antibodies overnight at 4° C. After washing, the antibody-protein complexes were probed with appropriate secondary antibodies labeled with horseradish peroxidase for 1 hr at room temperature and detected with chemiluminescent reagents (SuperSignal, Pierce, Rockford, Ill.). […]

[1] = test system: rats, IT SP (spinal NK-1 receptors); experiment: IT substance P-evoked thermal hyperalgesia (paw withdrawal latency, Hargreaves device); format: in vivo, rat; details: for IT SP-induced thermal hyperalgesia (paw withdrawal latency): IT p38α AS 30 μg or p38β AS 20 μg daily for five days, IT SP 30 nmol, compared with MS group; for Base line thermal thresholds: before IT SP, after five days of IT treatment
Procedure: Yaksh et al., Nature 286: 155-157, 1980; Yaksh, Trends Pharmacol Sci 20: 329-337, 1999. […] Malmberg and Yaksh, Science 257: 1276-1279, 1992; Svensson et al., J Neurochem 86: 1534-1544, 2003. […] To investigate the contribution of p38α and p38β to SP-evoked hyperalgesia and p38 phosphorylation, spinal delivery of p38α and p38β AS and MS was carried out. Thermal withdrawal latencies was assessed after IT injection of SP and lumbar spinal cords collected immediately to compare the degree of spinal p38 phosphorylation at the hypothesized time of peak phosphorylation. IT injection of SP into the MS group produced an expected reduction of thermal withdrawal latency in comparison with IT saline injection into to vehicle treated animals (FIG. 7C). […] In contrast, IT SP-induced thermal hyperalgesia was attenuated in rats which had received p38β AS (FIG. 7E). […] Stripping and reprobing the western blot membranes confirmed that p38α protein expression was knocked down in p38α AS treated group (FIG. 7D) as well as p38β in the p38β AS group (FIG. 7F).
Nociceptive models. To directly induce spinal sensitization, rats received intrathecal injections of sP (30 nmol) which activates spinal NK-1 receptors and produces thermal hyperalgesia. Hua et al., Neuroscience 89: 525-534, 1999a; Piercey et al., Science 214: 1361-1363, 1981; Yashpal and Henry, Can J Physiol Pharmacol 61: 303-307, 1983. Thermally evoked paw withdrawal responses were assessed using a Hargreaves type testing device. Dirig et al., J Neurosci Methods 76: 183-191, 1997. Briefly, rats were placed on a glass surface maintained at 30° C. The thermal nociceptive stimulus originates from a projection bulb below the glass surface, and the stimulus is delivered separately to one hind paw at a time. The animals were allowed to acclimatize on the glass surface and basal paw withdrawal latencies (PWL) were then assessed for left and right paws at time (T)=−40, =30 and −20 min and expressed as the mean of the six measurements. At T=−10 min the animals received intrathecal vehicle or drug and at T=0, sP was injected. Withdrawal latencies were then assessed at T=15, 30, 45 and 60 min. Paw withdrawal latency for each group was expressed as the mean at each time point.

Row | Substance | p38α protein expression, % Expression Compared to Missense (p38α; IT antisense 10 μg once daily for 5 days) | p38α protein expression, % Expression Compared to Missense (p38α; IT antisense 30 μg once daily for 5 days) | spinal p38α protein expression compared to missense (MS)-treated animals (in words) (p38α) | IT SP-induced thermal hyperalgesia (paw withdrawal latency) [1] | Base line thermal thresholds [1] | p38α protein expression, % Expression Compared to Missense (p38α; IT antisense 20 μg once daily for 5 days)
1 | p38α AS: 20-nucleotide 2′-MOE phosphorothioate chimeric antisense AGGTGCTCAGGACTCCATTT, beginning at position 1081 in the rat p38α mRNA (all phosphorothioate, sugars by position and methylation of C not given here; 2'-MOE chimeric (gapmer) antisense) | 59 ± 26% | 39 ± 8* % | significant down-regulation; also recorded: knocked down | not affected | 11.49 ± 0.3 s | –
2 | p38β AS: 20-nucleotide 2′-MOE phosphorothioate chimeric antisense GTATGTCCTCCTCGCGTGGA, beginning at position 439 in the rat p38β mRNA (all phosphorothioate, sugars by position and methylation of C not given here; 2'-MOE chimeric (gapmer) antisense) | – | – | somewhat increased | attenuated; also recorded: blocked IT SP-evoked thermal hyperalgesia | 10.8 ± 0.5 s | 205 ± 65* %
